US7914821B2, “Pharmaceutical composition for prevention and/or treatment of bone loss” (KO DA Pharmaceuticals Co., Ltd., priority 2008, dated 2011)

Columns and labels:
Bone cells [1] = test: ALP activity of bone cells; assay type: cell-based, rat; conditions: for ALP activity of the bone cells: 0.3, 1, 3, 10 μM, FIG. 8A
Text: Rat primary osteoblast was isolated from the parietal bone of gestation day 18 embryos of Sprague-Dawley rats. After being slaughtered, the embryo rats were obtained from the uteruses of the rats, and calvarium was isolated from the embryo rats. […] The digestion step was repeated five times. […] When cells were attached and confluence, they were sub-cultured, which was called “passage 2 (P2)”. The passage was for analogizing. 2 to 5 passage cells were used for the experiments. Bone cells were treated with 0.3, 1, 3, and 10 μM of imperatorin and bergapten, respectively. After treatment, the osteoblast cells were digested in 0.2% NP-40 solution, and then centrifuged at 1500 g for 5 minutes. The ALP activity of the osteoblast cells was tested using an ALP kit (Roche Applied Science). […] Referring to FIG. 8A, imperatorin and bergapten both increased the ALP activity of the bone cells.

SMADs = test: Phosphorylation of SMADs (western blot); assay type: cell-based, rat; conditions: 10 μM, 1, 3, 6, 12, 24 hrs; FIG. 10
Description: (§1) Rat primary osteoblast was isolated from the parietal bone of gestation day 18 embryos of Sprague-Dawley rats. After being slaughtered, the embryo rats were obtained from the uteruses of the rats, and calvarium was isolated from the embryo rats. Parietal bone was cut from the calvarium and digested by 0.1% collagenase for 20 minutes to release the bone cells from the bone tissue. The digestion step was repeated five times. The collected bone cells were cultured in α-MEM containing 1% penicillin-streptomycin and 10% FBS in a humidified atmosphere of 5 percent carbon dioxide. When cells were attached and confluence, they were sub-cultured, which was called “passage 2 (P2)”. The passage was for analogizing. 2 to 5 passage cells were used for the experiments.
Bone cells was cultured in 6-well plate and treated with 10 μM of imperatorin and bergapten for 1, 3, 6, 12, and 24 hrs, respectively. […] Following incubation with the secondary antibody, the membrane was washed three times with PBST, and detected by an […] chemiluminescence using an ECL blotting substrate according to the manufacturer's instructions. […]

Bone cells [2] = test: Mineralization in bone cells (Alizarin red-S); assay type: cell-based, rat; conditions: for mineralization of bone cells: 0.3, 1, 3, 10 μM, 14 days, differentiation medium, FIGS. 8C-8D; for increase of mineralization: 'at least' figure
Description: as §1
Bone cells were cultured in 96-well Plate containing a differentiation medium (50 μg/ml vitamin C and 10 mM β-glycerophosphate) and treated with 0.3, 1, 3, and 10 μM of imperatorin and bergapten, respectively. The differentiation medium was refreshed every 3 days. 14 days after the cell culture, the bone cells were fixed with 75% ethanol for 30 minutes, and then treated with 40 mM Alizarin red-S at room temperature for 1 hr. After the addition of Alizarin red-S, 10% cetylpyridinium chloride was added, and then absorbance was measured at […]. The mineralization level in the control group which was treated with 0.1% DMSO was defined as 100%. Referring to FIGS. 8C-8D, imperatorin and bergapten both increased the mineralization of bone cells.

BMP-2 gene = BMP-2 gene expression (RT-PCR); assay type: cell-based, rat; conditions: for BMP-2 mRNA level, dependence on concentration: 0.3, 1, 3, 10 μM, FIG. 9A; for BMP-2 mRNA level, dependence on treatment time: 1, 3, 6, 12 hrs, FIG. 9B
Description: as §1
Bone cells were cultured in 6-well Plate and cultured with 0.3, 1, 3, and 10 μM of imperatorin and bergapten for 1, 3, 6, and 12 hrs, respectively. After treatment, the cells were lysed with TRIzol reagent at room temperature for 5 minutes, and then collected in a centrifuge tube. 0.5 ml of chloroform was added to the centrifuge tube. After the addition of chloroform, the centrifuge tube was well mixed, and centrifuged at 14000×g for 15 minutes at room temperature to obtain a supernatant. The supernatant was mixed with isopropanol (0.25 ml) and then centrifuged at 14000×g at room temperature for 15 minutes to obtain a precipitated RNA. RNA was washed with 75% alcohol, centrifuged at 14000×g for 10 minutes, and dried to give a RNA pellet. The RNA pellet was dissolved in diethyl pyrocarbonate (DEPC) solution and then quantitated by measurement of OD260/280. BMP-2 gene expression (BMP-2 mRNA level) was detected by RT-PCR using Supperscript™ III reverstranscriptase and […] (Applied Biosystems). The BMP-2 mRNA level in the control group which was treated with 0.1% DMSO was defined as 100%.

p38 mutant cell (DN-p38) = test: ALP activity in p38 mutant cell; assay type: cell-based; conditions: 10 μM; FIG. 11D
Description: Bone cells were cultured and treated with (1) 10 μM SB203580, (2) 10 μM PD98059, (3) 10 μM imperatori, (4) 10 μM bergapten, (5) 10 μM imperatorin+SB203580, (6) 10 μM bergapten+SB203580, (7) 10 μM imperatorin+PD98059 ? (8) 10 μM bergapten+PD98059 for 48 hrs. After treatment, the bone cells were lysed in 0.2% […] solution and centrifuged at 1500×g for 5 minutes. The supernatant was analyzed by an ALP kit such as described above to obtain the ALP activity. The ALP activity in the control group which was treated with 0.1% DMSO was defined as 100%. Referring to FIG. 11C, p38 inhibitor (SB203580) and ERK inhibitor (PD98059) suppressed the imperatorin and bergapten induced-ALP activity.
The same procedure carried out in Example 20 was repeated. The experiment group used alternative cells and treatment comprising: (1) DN-p38 cell, (2) DN-ERK cell, (3) DN-p38 cell+10 μM imperatorin, (4) DN-p38 cell+10 μM bergapten, (5) DN-ERK cell+10 μM imperatorin, (6) DN-ERK cell+10 μM bergapten, (7) normal bone cell+10 μM imperatorin, and (8) normal bone cell+10 μM bergapten. The ALP activity in the control group which was treated with 0.1% DMSO was defined as 100%. Referring to FIG. 11D, the ALP activity was not induced in p38 mutant cell (DN-p38) and ERK mutant cell (DN-ERK) by imperatorin and bergapten.

Compound	ALP activity of the bone cells (Bone cells [1])	increase of alkaline phosphatase (ALP) activity (Bone cells [1]; 'at least' figure)	phosphorylation of SMADs (SMADs)	mineralization of bone cells (Bone cells [2])	increase of mineralization (Bone cells [2])	BMP-2 mRNA level, dependence on concentration (BMP-2 gene)	BMP-2 mRNA level, dependence on treatment time (BMP-2 gene)	ALP activity in p38 mutant cell (DN-p38) (p38 mutant cell (DN-p38))	increase of alkaline phosphatase (ALP) activity (Bone cells [1]; 'preferably ... at least' figure)
COc1c2ccoc2cc2oc(=O)ccc12 [bergapten]	increased	≥ 80.0%	induced	increased	≥ 105.0%	increased according to the increase of the concentration	increased according to the increase of the treatment time	not induced	
CC(C)=CCOc1c2occc2cc2ccc(=O)oc12 [imperatorin]	increased	≥ 6.0%	induced	increased	≥ 110.0%	increased according to the increase of the concentration	increased according to the increase of the treatment time	not induced	at least 95%
